Assay results: patent publication US12643889B2, “Synthesis of novel EP4 antagonist and use in cancer and inflammation” (Wuhan Humanwell Innovative Drug Research And Development …, priority 2020, dated 2026)

Columns and labels:
[1] = Canine pharmacokinetic assay; format: in vivo, male Beagle dogs
Protocol: (§1) In a mouse pharmacokinetic assay, male ICR mice (20 g to 25 g) were selected and fasted overnight. Three mice were selected and intragastrically administered with 5 mg/kg of the corresponding compound. The blood of the mice was collected before the administration and at 15 min, 30 min, 1 h, 2 h, 4 h, 8 h, 24 h after the administration. Another 3 mice were intravenously administered with 1 mg/kg of the corresponding compound, and the blood thereof was collected before the administration and at 15 min, 30 min, 1 h, 2 h, 4 h, 8 h, 24 h after the administration. The blood samples were centrifuged at 6800 g at 2° C. to 8° C. for 6 minutes, and plasma was collected and stored at −80° C. The plasma was taken at respective time point, mixed with 3-5 times the amount of acetonitrile containing internal standard, vortexed for 1 minute, centrifuged at 4° C. for 10 minutes at 13000 rpm, supernatant was added 3 times the amount of water, and the appropriate mixture was taken for LC-MS/MS analysis. The primary pharmacokinetic parameters were analyzed with a WinNonlin 7.0 software, with non-compartmental model.
In a canine pharmacokinetic assay, male Beagle dogs (8 kg to 10 Kg) were selected and fasted overnight. Three Beagle dogs were taken and intragastrically administered with 3 mg/kg of the corresponding compound. Another 3 Beagle dogs were intravenously administered with 1 mg/kg of the corresponding compound. The following operations were the same as the mouse pharmacokinetic assay.

human EP4 receptor [2] = biological target: T1, human EP4 receptor (Homo sapiens, UniProt P35408); assay: Assay for EP4 antagonistic effect (cAMP, PGE2-stimulated CHO stable cell line)
T1 sequence (P35408 whole entry): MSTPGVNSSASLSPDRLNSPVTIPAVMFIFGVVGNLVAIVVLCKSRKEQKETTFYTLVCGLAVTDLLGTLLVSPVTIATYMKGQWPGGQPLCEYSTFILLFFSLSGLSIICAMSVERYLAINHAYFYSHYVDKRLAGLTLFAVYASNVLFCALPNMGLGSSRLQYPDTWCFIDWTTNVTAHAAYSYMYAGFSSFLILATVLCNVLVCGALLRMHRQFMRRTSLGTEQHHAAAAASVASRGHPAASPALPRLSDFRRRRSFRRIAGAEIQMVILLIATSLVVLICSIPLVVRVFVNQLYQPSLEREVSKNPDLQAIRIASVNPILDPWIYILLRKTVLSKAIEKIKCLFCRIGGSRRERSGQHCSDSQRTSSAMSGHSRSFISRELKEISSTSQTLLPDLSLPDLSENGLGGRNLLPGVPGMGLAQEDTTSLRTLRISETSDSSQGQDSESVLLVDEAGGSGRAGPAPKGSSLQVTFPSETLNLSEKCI
Protocol: After trypsinization, cells were resuspended in a buffer (1×HBSS, 0.1% BSA, 20 mM HEPES, and 500 μM IBMX) and 8000 cells were seeded per well in 384-well plates in a seeding volume of 15 μL. A working solution the compound with a 8× concentration was prepared with an experimental buffer, and then 2.5 μL of the working solution of the compound with 8× concentration was added to the 384-well plate, respectively, and incubated at 37° C. for 30 min. An agonist PGE2 working solution with 8× concentration of (4 nM) was prepared with the experimental buffer and 2.5 μL per well was added to the 384-well plate (the final PGE2 concentration was 0.5 nM) and incubated at 37° C. for 30 min. After the reaction was completed, the amount of cAMP in the cells was quantified according to the method in the instructions of the cAMP test kit (Perkin Elmer, Cat #TRF0263). The antagonistic effects (IC50 value) were calculated for the test compounds.

[3] = biological target: T2, recombinant human EP4 receptor membrane protein (Homo sapiens, UniProt P35408); assay: Radioligand binding assay for EP4 receptor ([3H]-PGE2); details: [3H]-PGE2 1.5 nM; membrane protein 20 μg/well
T2 construct: expressed in transfected cells; host or cells: membranes of 293 cells overexpressing human EP4 receptor
T2 sequence (P35408 whole entry): as above

[4] = Rat pharmacokinetic assay; format: in vivo, male SD rats
Protocol: as §1
In a rat pharmacokinetic assay, male SD rats (180 g to 240 g) were selected and fasted overnight. Three rats were intragastrically administered with 5 mg/kg of the corresponding compound. Another 3 rats were intravenously administered with 1 mg/kg of the corresponding compound. The following operations were the same as the mouse pharmacokinetic assay.

human EP4 receptor [5] = biological target: T1, human EP4 receptor; assay: Assay of calcium current inhibition on EP4 receptor (FLIPR, 293 cells); format: cell-based; design: expressed in transfected cells; host or cells: 293 cells; details: 293 cells overexpressing human EP4; PGE2 at EC80; FLIPR
[6] = Mouse pharmacokinetic assay; format: in vivo, male ICR mice; details: male, ICR, plasma
[7] = male, Beagle, dog, plasma, canine, intravenous administration 1 mg/kg
[8] = male, Beagle, dog, plasma, canine, oral gavage administration 3 mg/kg
[9] = male, SD, plasma, rat, intravenous administration 1 mg/kg
[10] = male, SD, plasma, rat, oral gavage administration 5 mg/kg
[11] = intravenous administration 1 mg/kg
[12] = oral gavage administration 5 mg/kg

For `C[C@H](NC(=O)c1c(C(F)F)nn(C)c1Oc1cccc(C(C)(F)F)c1)c1ccc(C(=O)O)cc1` [Compound I-5, (S)-4-(1-(5-(3-(1,1-difluoroethyl)phenoxy)-3-(difluoromethyl)-1-methyl-1H-pyrazole-4-carboxamido)ethyl)benzoic Acid], the “exposure after oral administration relative to the control compound” value ([1]; canines, oral administration) was “about 2 times”, the AUC(0-t) [1, 7] was 4370 ng·h/mL and the clearance [1, 7] was 3.5 mL/min/kg. It also gave a half-life [1, 7] of 9.73 h, a Vd ([1]; male, Beagle, dog, plasma, canine, intravenous administration 1 mg/kg, read-out: Vz) of 2.84 L/kg and an AUC(0-t) [1, 8] of 10300 ng·h/mL. It also gave a Cmax [1, 8] of 4820 ng/mL, a Tmax [1, 8] of 0.25 h and a half-life [1, 8] of 19.9 h. For the same compound, the IC50 (human EP4 receptor [2]) was 2.2 nM, the IC50 [3] was 5.3 nM and the Ki [3] was 2.9 nM. The AUC(0-t) [4, 9] was 1670 ng·h/mL, the clearance [4, 9] was 9.5 mL/min/kg and the half-life [4, 9] was 9.3 h. It also gave a Vd ([4]; male, SD, plasma, rat, intravenous administration 1 mg/kg, read-out: Vz) of 7.66 L/kg, an AUC(0-t) [4, 10] of 10800 ng·h/mL and a Cmax [4, 10] of 993 ng/mL. The Tmax [4, 10] was 2 h, the half-life [4, 10] was 9.87 h and the “exposure after oral administration relative to the control compound” value ([4]; rats, oral administration) was “about 2 times”. For the same compound, the IC50 (human EP4 receptor [5]) was 12 nM, the AUC(0-t) [6, 11] was 1260 ng·h/mL and the clearance [6, 11] was 12.7 mL/min/kg. For the same compound, the half-life [6, 11] was 5.11 h, the Vd ([6]; intravenous administration 1 mg/kg, read-out: Vz) was 5.62 L/kg and the AUC(0-t) [6, 12] was 2710 ng·h/mL. It also gave a Cmax [6, 12] of 1450 ng/mL, a Tmax [6, 12] of 0.33 h and a half-life [6, 12] of 7 h.
